Results on 14 molecules are retold here after patent publication EP0384380A2, “Novel peptide derivatives and their pharmaceutical use” (JAPAN TOBACCO INC., priority 1989, dated 1990).

Like-named read-outs stand apart in the source and are kept apart here.

Holding throughout (assay type): in vivo
The test system of assay [1] is ICR male mice. Kind of assay: Anti-chlorpromazine action (locomotor stimulant action). To be noted: SC, mice given chlorpromazine HCl 5 mg/kg s.c., test compound one hour later, estimated from regression line; for ED (3000 locomotor counts): Mus musculus, 2 h, read-out: Concentration of test compound necessary for inducing 3000 count of automatism quantity in 2 hours. The method, then:
Anti-chlorpromazine action (Locomotor stimulant action)
ICR male mice weighing 35 - 40 g (four animals per group) were subcutaneously administered with chlorpromazine HCI at the dose of 5 mg/kg and immediately set in the automatic locomotor-measuring apparatus (AUTOMEX). One hour later, the test compound dissolved in saline was subcutaneously administered, and the locomotor activity was measured every 15 minutes for 120 minutes. The total locomotor activity during the period of 120 minutes was calculated and the regression line was estimated based on the method of least squares, from which the amount of the test compound necessary for inducing 3000 locomotor-count was estimated (Table 2).

The test system of assay [2] is ICR male mice. Kind of assay: Anti-reserpine action (antagonistic action against hypothermia). To be noted: SC, mice given reserpine 5 mg/kg s.c., test compound 3 or 3.5 hours later, estimated from regression line; for ED (1 degC rise in body temperature): Mus musculus, 2 h, read-out: Concentration of test compound necessary for raising body temperature by 1 °C on the average for 120 minutes. The method, then:
Anti-reserpine action (Antagonistic action against hypothermia)
ICR male mice weighing 35 - 40 g were subcutaneously administered with reserpine at the dose of 5 mg/kg. About 2 hours later, each of the mice was held by a mouse-holder, and a body temperature sensor was intrarectally inserted. Thereafter, the body temperature was automatically measured every 10 minutes. The test compound dissolved in saline was subcutaneously administered 3 or 3.5 hours after administration of reserpine. After the administration of the test compound, the body temperature was measured every 10 minutes over the period of 120 minutes. The area below the body temperature line during the period was calculated, from which the regression line was estimated based upon least square method, and estimated was the amount of the test compound necessary for raising the body temperature by 1 °C on the average for 120 minutes from that just before the administration of the test compound (Table 1).

The test system of another assay is Wistar male rats. Kind of assay: Flexor reflex in spinalized rats. Details: key to Area below the reflex amplitude linking line: area under % amplitude vs. time line over 60 min (pre-dose = 100%). To be noted: pre-dose amplitude = 100%; for Area below the reflex amplitude linking line: covering 60 minutes; for response vs control in vivo at 0.1 mg/kg / response vs control in vivo at 0.3 mg/kg: Rattus norvegicus. As to the method:
Flexor reflex in spinalized rats
Wistar male rats (weighing 450 - 520 g) were anesthetized with ether, and the cervical part of spinal cord was exposed, into which a tracheal cannula was inserted. The vagus nerves were severed bilaterally at the cervical region. Thereafter, the cervical vertebra C1 segment was transected, and rapidly, artificial ventilation was given with the use of an artificial respirator (Shinano Factory 60 rpm. 4 ml/stroke). The rat was placed on a thermostated apparatus in which water thermostated at 37 C was circulated and fixed thereto at forelimbs, right hindlimb, tooth and tail. A venous cannula was inserted into the femoral vein in the right hindlimb and two needle electrodes were subcutaneously inserted into the left skin of the toe, and a piece of thread was attached to the limb with the edge of the thread bonded to a force-displacement - transducer. Tension of about 5 g was applied to the thread. Through the elctrodes, electric stimuli of 50 - 100 V were applied once per 30 seconds. The flexor reflex was recorded on the polygraph via a force-displacement transducer. After the reaction became constant in about one-hours' lapse for stabilization, the test compound dissolved in saline was intravenously administered. Thereafter, the reaction was recorded for 1 hour. In the data, taking the mean of the three reactions just before administration of the test compound for 100%, the reflex amplitude at 1-, 3-, 5-, 8-, 10-, 15-, 20-, 30-, 40-, 50- and 60- minutes' lapse after administration of the test compound were calculated. In Table 3, there are shown calculated area below the straight line linking the obtained reflex amplitude at the respective above-mentioned time covering 60 minutes in the case of administration of each test compounds at the dose of 0.1 mg/kg, and the reflex amplitude at 10- and 60-minutes' lapse after administration (Table 3).

[3] abbreviates: intravenous administration at the dose of 0.1 mg/kg.
The mark [4] stands for this setting: 10 min, intravenous administration at the dose of 0.1 mg/kg, read-out: Reflex amplitude (%) 10 min. after.
[5] abbreviates: 10 min, intravenous administration at the dose of 0.3 mg/kg (footnote *), read-out: Reflex amplitude (%) 10 min. after.
Where [6] appears, read: intravenous administration at the dose of 0.3 mg/kg (footnote *).
Setting [7] is: 1 h, intravenous administration at the dose of 0.1 mg/kg, read-out: Reflex amplitude (%) 60 min. after.

With `NC(=O)[C@@H]1CCCN1C(=O)[C@H](Cc1c[nH]cn1)NC(=O)[C@H]1NC(=O)C[C@H]1c1ccccc1` (relative stereo) [Compound 11, N^α-(cis-3-Phenylpyroglutamyl)-L-histidyf-L-prolinamide], the “Concentration of test compound necessary for inducing 3000 count of automatism quantity in 2 hours” value in the assay on ICR male mice [1] was 1.89 mg/kg. For the same molecule, the “Concentration of test compound necessary for raising body temperature by 1 °C on the average for 120 minutes” value in the assay on ICR male mice [2] was 0.28 mg/kg. In addition, in the assay with Wistar male rats (setting [3]), the “Area below the reflex amplitude linking line” value came out at 11321, the “Reflex amplitude (%) 10 min. after” value was 140.4% and the “Reflex amplitude (%) 60 min. after” value was determined as 240.8%.
For the molecule `C[C@H]1CC(=O)C[C@H]1C(=O)N[C@@H](Cc1c[nH]cn1)C(=O)N1CCC[C@H]1C(N)=O` (mixture of isomers) [Compound 19, N^α-(cis-2-Methyl-4-oxocyclopentanecarbonyl)-L-histidyl-L-prolinamide], the ED (3000 locomotor counts) with ICR male mice [1] was 0.54 mg/kg. In the assay with ICR male mice [2], the ED (1 degC rise in body temperature) was 0.14 mg/kg. The response vs control in vivo at 0.1 mg/kg in the assay on Wistar male rats (setting [4]) was 138%. For the same molecule, the response vs control in vivo at 0.3 mg/kg in the assay on Wistar male rats (setting [5]) turned out to be 250%. Moreover, the “Area below the reflex amplitude linking line” value is recorded as 11860 with Wistar male rats (setting [3]) and 19114 in the assay with Wistar male rats (setting [6]).
On to `C[C@H]1CC(=O)N[C@@H]1C(=O)N[C@@H](Cc1c[nH]cn1)C(=O)N1CCC[C@H]1C(N)=O` [Compound 2, N^α-(trans-3-Methylpyroglutamyl)-L-histidyl-L-prolinamide], for which the ED (3000 locomotor counts) in the assay on ICR male mice [1] is 12.9 mg/kg. In addition, in the assay on ICR male mice [2], the ED (1 degC rise in body temperature) was 1.11 mg/kg. Also, the response vs control in vivo at 0.1 mg/kg in the assay with Wistar male rats (setting [4]) is 126%. For the same molecule, the “Area below the reflex amplitude linking line” value in the assay on Wistar male rats (setting [3]) came to 7077.
On the same counts, the results for `C[C@@H]1CC(=O)N[C@@H]1C(=O)N[C@@H](Cc1c[nH]cn1)C(=O)N1CCC[C@H]1C(N)=O` [Compound 1, N^α-(cis-3-Methylpyroglutamyt)-L-histidyl-L-prolinamide] are 0.51 mg/kg, 0.3 mg/kg, 159% and 12970.
For the molecule `CC1(C)CC(=O)CC1C(=O)N[C@@H](Cc1c[nH]cn1)C(=O)N1CCC[C@H]1C(N)=O` (stereo partly drawn) [Compound 21, N^α-(2,2-Dimethyl-4-oxocyclopentanecarbonyl)-L-histidyl-L-prolinamide], in the assay on ICR male mice [1], the ED (3000 locomotor counts) is 0.83 mg/kg. Moreover, the ED (1 degC rise in body temperature) in the assay on ICR male mice [2] is 0.18 mg/kg. Further, in the assay on Wistar male rats (setting [4]), the response vs control in vivo at 0.1 mg/kg was determined as 115%. For the same molecule, the response vs control in vivo at 0.3 mg/kg with Wistar male rats (setting [5]) was 170%. Moreover, the “Area below the reflex amplitude linking line” value in the assay on Wistar male rats (setting [3]) was 7186; with Wistar male rats (setting [6]), 14294.
Turning to `NC(=O)[C@@H]1CCCN1C(=O)[C@H](Cc1c[nH]cn1)NC(=O)[C@@H]1CCC(=O)N1` [TRH, L-pyroglutamyl-L-histidyl-L-prolinamide, reference compound], the ED (3000 locomotor counts) in the assay with ICR male mice [1] is 6.82 mg/kg. Besides, the response vs control in vivo at 0.1 mg/kg in the assay on Wistar male rats (setting [4]) is 118%.
Consider `NC(=O)[C@@H]1CCCN1C(=O)[C@H](Cc1c[nH]cn1)NC(=O)C1CCC(=O)C1` (stereo partly drawn) [Compound 13, N^α-(3-Oxocyclopentanecarbonyl)-L-histidyl-L-prolinamide], for which the ED (3000 locomotor counts) with ICR male mice [1] is 1.03 mg/kg. Moreover, in the assay with ICR male mice [2], the ED (1 degC rise in body temperature) was 0.71 mg/kg. Moreover, in the assay with Wistar male rats (setting [4]), the response vs control in vivo at 0.1 mg/kg worked out at 110%. Besides, the “Area below the reflex amplitude linking line” value with Wistar male rats (setting [3]) was found to be 8572.
On the same counts, the results for `NC(=O)[C@@H]1CCCN1C(=O)[C@H](Cc1c[nH]cn1)NC(=O)[C@@H]1CCC(=O)C1` [Compound 16, N^a-[(1 R)-3-Oxocyclopentanecarbonyl]-L-histidyl-L-prolinamide] are 0.88 mg/kg, 0.12 mg/kg, 152% and 12016.
For the molecule `C[C@@H]1CC(=O)C[C@H]1C(=O)N[C@@H](Cc1c[nH]cn1)C(=O)N1CCC[C@H]1C(N)=O` (mixture of isomers) [Compound 20, N^α-(trans-2-Methyl-4-oxocyclopentanecarbonyl)-L-histidyl-L-prolinamide], the ED (3000 locomotor counts) in the assay with ICR male mice [1] was 1.3 mg/kg. Besides, the ED (1 degC rise in body temperature) in the assay with ICR male mice [2] is 0.27 mg/kg. The response vs control in vivo at 0.1 mg/kg with Wistar male rats (setting [4]) stood at 105%. Further, the response vs control in vivo at 0.3 mg/kg in the assay with Wistar male rats (setting [5]) was determined as 129%. Further, the “Area below the reflex amplitude linking line” value with Wistar male rats (setting [3]) was 6317; in the assay on Wistar male rats (setting [6]), 10355.
As to `NC(=O)C1CCCN1C(=O)C(Cc1c[nH]cn1)NC(=O)C1CCC(=O)O1` (centres unmarked) [DN1417, reference compound], the ED (3000 locomotor counts) in the assay on ICR male mice [1] was 4.34 mg/kg. The ED (1 degC rise in body temperature) with ICR male mice [2] is 2.06 mg/kg. Besides, the response vs control in vivo at 0.3 mg/kg stood at 114% in the assay with Wistar male rats (setting [5]) and 163% in the assay on Wistar male rats (1 h, intravenous administration at the dose of 0.3 mg/kg (footnote *), read-out: Reflex amplitude (%) 60 min. after). Further, the “Area below the reflex amplitude linking line” value with Wistar male rats (setting [6]) was found to be 8152.
Consider `C[C@@H]1CC(=O)O[C@@H]1C(=O)N[C@@H](Cc1c[nH]cn1)C(=O)N1CCC[C@H]1C(N)=O` [Compound 5, N^α-[(2S,3R)-Tetrahydro-3-methyl-5-oxo-2-furancarbonyl]-L-histidyl-L-prolinamide], for which the ED (3000 locomotor counts) in the assay with ICR male mice [1] is 0.7 mg/kg. In addition, in the assay with ICR male mice [2], the ED (1 degC rise in body temperature) was 0.12 mg/kg. Besides, the response vs control in vivo at 0.1 mg/kg with Wistar male rats (setting [4]) was found to be 132%. For the same molecule, the “Area below the reflex amplitude linking line” value with Wistar male rats (setting [3]) is 9221.
As for `C[C@@H]1CC(=O)N[C@@H]1C(=O)N[C@@H](Cc1c[nH]cn1)C(=O)N1CSC[C@H]1C(N)=O` [Compound 3, 3-[N^α-(cis-3-Methylpyroglutamyt)-L-histidyl]-L-thiazolidine-4-carboxamide], the ED (3000 locomotor counts) in the assay with ICR male mice [1] is 0.47 mg/kg. For the same molecule, the ED (1 degC rise in body temperature) in the assay on ICR male mice [2] was 0.2 mg/kg. Also, the figures for the response vs control in vivo at 0.1 mg/kg with Wistar male rats (setting [4]) and in the assay on Wistar male rats (setting [7]) were 190% and 278%, respectively. In addition, the “Area below the reflex amplitude linking line” value in the assay with Wistar male rats (setting [3]) amounted to 13811.
Take `NC(=O)[C@@H]1CCCN1C(=O)[C@H](Cc1c[nH]cn1)NC(=O)[C@H]1NC(=O)C[C@@H]1c1ccccc1` (relative stereo) [Compound 10, N^a-(trans-3-Phenylpyroglutamyl)-L-histidyl-L-prolinamide]: the “Concentration of test compound necessary for inducing 3000 count of automatism quantity in 2 hours” value in the assay on ICR male mice [1] is 1.89 mg/kg. The “Concentration of test compound necessary for raising body temperature by 1 °C on the average for 120 minutes” value in the assay on ICR male mice [2] is on record as 0.53 mg/kg. In the assay on Wistar male rats (setting [3]), the “Area below the reflex amplitude linking line” value came to 16593, the “Reflex amplitude (%) 10 min. after” value worked out at 242.7% and the “Reflex amplitude (%) 60 min. after” value turned out to be 329.2%.
For `C[C@H]1CC(=O)N[C@@H]1C(=O)N[C@@H](Cc1c[nH]cn1)C(=O)N1CSC[C@H]1C(N)=O` [Compound 4, 3-[N^α-(trans-3-Methylpyroglutamyl)-L-histidyl]-L-thiazolidine-4-carboxamide], in the assay with ICR male mice [1], the ED (3000 locomotor counts) is 0.63 mg/kg. The ED (1 degC rise in body temperature) with ICR male mice [2] was 0.34 mg/kg. For the same molecule, the response vs control in vivo at 0.1 mg/kg with Wistar male rats (setting [4]) came to 143%; with Wistar male rats (setting [7]), 164%. In the assay with Wistar male rats (setting [3]), the “Area below the reflex amplitude linking line” value was 9404.
